Test results reported in patent US12528819B2 (priority 2016, dated 2026).

Target: T1, α5β2γ2 subtype GABAAR (Homo sapiens, UniProt P18507+P31644)
T1 construct: expressed in transfected cells
T1 sequence (P31644 32-462): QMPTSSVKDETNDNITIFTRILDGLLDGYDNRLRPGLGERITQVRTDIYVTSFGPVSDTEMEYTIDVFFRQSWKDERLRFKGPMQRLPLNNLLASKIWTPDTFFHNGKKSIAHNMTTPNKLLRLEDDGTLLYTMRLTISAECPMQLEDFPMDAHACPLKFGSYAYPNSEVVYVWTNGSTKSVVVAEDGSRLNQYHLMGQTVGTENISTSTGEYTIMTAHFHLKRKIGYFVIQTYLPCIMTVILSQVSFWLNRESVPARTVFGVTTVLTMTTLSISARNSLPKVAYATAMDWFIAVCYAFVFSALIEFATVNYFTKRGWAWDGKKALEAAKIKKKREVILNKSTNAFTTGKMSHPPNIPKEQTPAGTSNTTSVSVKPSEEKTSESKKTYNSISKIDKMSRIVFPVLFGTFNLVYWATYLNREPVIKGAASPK
T1 sequence (P47870 25-512 partner limits assumed): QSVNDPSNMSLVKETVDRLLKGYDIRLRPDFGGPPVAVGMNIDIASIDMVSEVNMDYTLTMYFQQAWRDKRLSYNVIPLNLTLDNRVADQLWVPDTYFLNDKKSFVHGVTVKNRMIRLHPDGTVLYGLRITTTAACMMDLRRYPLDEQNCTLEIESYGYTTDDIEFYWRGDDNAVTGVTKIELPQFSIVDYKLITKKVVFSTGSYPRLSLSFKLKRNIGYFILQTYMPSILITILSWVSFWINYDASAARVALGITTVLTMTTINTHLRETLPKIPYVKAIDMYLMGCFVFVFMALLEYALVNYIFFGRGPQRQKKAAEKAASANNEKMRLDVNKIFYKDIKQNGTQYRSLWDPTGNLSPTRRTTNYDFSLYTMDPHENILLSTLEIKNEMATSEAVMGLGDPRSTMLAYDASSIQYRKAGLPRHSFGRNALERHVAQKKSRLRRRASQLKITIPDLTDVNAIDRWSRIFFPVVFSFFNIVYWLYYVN
T1 sequence (P18507 40-467 limits assumed): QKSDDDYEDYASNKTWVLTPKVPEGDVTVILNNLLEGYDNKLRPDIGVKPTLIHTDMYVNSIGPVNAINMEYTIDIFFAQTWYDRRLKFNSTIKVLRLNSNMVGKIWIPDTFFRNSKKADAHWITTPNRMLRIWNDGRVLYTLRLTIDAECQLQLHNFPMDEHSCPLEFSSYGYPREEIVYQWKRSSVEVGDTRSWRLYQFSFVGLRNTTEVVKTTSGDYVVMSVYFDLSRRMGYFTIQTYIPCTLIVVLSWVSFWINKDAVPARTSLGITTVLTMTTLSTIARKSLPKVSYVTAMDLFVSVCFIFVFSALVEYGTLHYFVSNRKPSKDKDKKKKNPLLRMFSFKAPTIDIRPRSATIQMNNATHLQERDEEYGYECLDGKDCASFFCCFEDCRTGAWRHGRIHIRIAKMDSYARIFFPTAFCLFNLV
Assay: Positive allosteric modulator activity: potentiation of EC20 GABA current in oocytes
Type: cell-based
Conditions: read-out: GABA α5 Functional Data (potentiation), @ 100 nM, reported as ranges
Description: (B) Positive Allosteric Modulator Activity of Test Compounds on α5β2γ2 Subtype GABAAR
On day 1, 1 ng/32 nL of GABAA α5β2γ2 cDNA was injected into one oocyte. Test starts on day 2. The cDNA injected to the oocytes was a mix of alpha, beta and gamma, their ratio is 1:1:10 (by weight) and the total weight of the mixed 3 subunits to be injected in one oocyte was 1 ng in 32 nl volume. The injected oocytes can also be tested on day 3. In such case, the cDNA amount injected to the oocytes should be reduced by 20%.
Compounds of the present invention were tested using the following procedures.
• 1). 8 oocytes were placed in 8 chambers of OpusXpress and superfused with Modified Barth's Saline (MBS) at 3 mL/min. Glass electrodes back-filled with 3M KCl (0.5-3 megaohms) were used.
Control test (Diazepam or methyl 3,5-diphenylpyridazine-4-carboxylate) • 1). New oocytes was used to run new test. • 2). […] Oocytes were washed with MBS for 5-10 min. • 4). […] Itest was divided by IGABA to obtain potentiation (%). Test Compounds at Multiple Doses • 1). Repeat the above steps 1), 2) and 3) in the control test. • 2). […] Divide Itest by IGABA to obtain potentiation (%). • 3). Discard all tested oocytes, new oocytes were used and the above steps 1) and 2) were repeated to test second concentration of the same compound. Each oocyte was used for only one concentration test for a single test compound. The steps were repeated for other test compounds.

CCOC(=O)c1ncn2c1Cc1c(C)nnn1-c1cc(OC)ccc1-2 [Compound 1]
activation at 0.1 µM: 20 to 50%

CCOC(=O)c1ncn2c1Cc1c(C)nnn1-c1cc(F)ccc1-2 [Compound 2]
activation at 0.1 µM: 20 to 50%

CCOC(=O)c1ncn2c1Cc1c(COc3ccccc3)nnn1-c1cc(OC)ccc1-2 [Compound 9]
activation at 0.1 µM: 20 to 50%

CCOC(=O)c1ncn2c1Cc1c(COc3ccc(F)cc3)nnn1-c1cc(OC)ccc1-2 [Compound 10]
activation at 0.1 µM: 5 to 20%

CCOC(=O)c1ncn2c1Cc1c(COc3cccc(OC)c3)nnn1-c1cc(OC)ccc1-2 [Compound 11]
activation at 0.1 µM: 20 to 50%

CCOC(=O)c1ncn2c1Cc1c(Cc3ccc(Cl)cc3)nnn1-c1cc(F)ccc1-2 [Compound 45]
activation at 0.1 µM: 20 to 50%

CCOC(=O)c1ncn2c1Cc1c(CN3CCCC3)nnn1-c1cc(OC)ccc1-2 [Compound 48]
activation at 0.1 µM: 20 to 50%

CCOC(=O)c1ncn2c1Cc1c(CN(CC)CC)nnn1-c1cc(OC)ccc1-2 [Compound 50]
activation at 0.1 µM: 5 to 20%

CCOC(=O)c1ncn2c1Cc1c(CN(C)Cc3ccccc3)nnn1-c1cc(OC)ccc1-2 [Compound 51]
activation at 0.1 µM: 5 to 20%

CCOC(=O)c1ncn2c1Cn1c(COc3ccccc3)nnc1-c1cc(OC)ccc1-2 [Compound 55]
activation at 0.1 µM: 20 to 50%

CCOC(=O)c1ncn2c1Cn1c(Oc3ccccc3)nnc1-c1cc(OC)ccc1-2 [Compound 104]
activation at 0.1 µM: 5 to 20%

Cc1noc(-c2ncn3c2Cc2c(Cc4ccccc4)nnn2-c2cc(F)ccc2-3)n1 [Compound 109]
activation at 0.1 µM: 20 to 50%

Cc1noc(-c2ncn3c2Cc2c(C)nnn2-c2cc(F)ccc2-3)n1 [Compound 110]
activation at 0.1 µM: 20 to 50%

CCOC(=O)c1ncn2c1Cc1c(Cc3cccnc3)nnn1-c1cc(C)ccc1-2 [Compound 111]
activation at 0.1 µM: 20 to 50%

Cc1nnn2c1Cc1c(C(=O)OC(C)C)ncn1-c1ccc(F)cc1-2 [Compound 112]
activation at 0.1 µM: 5 to 20%

Cc1nnn2c1Cc1c(C(=O)OCC(C)(C)C)ncn1-c1ccc(F)cc1-2 [Compound 113]
activation at 0.1 µM: > 50%

Cc1nnn2c1Cc1c(C(=O)OCC(F)(F)F)ncn1-c1ccc(F)cc1-2 [Compound 114]
activation at 0.1 µM: > 50%

COc1ccc2c(c1)-c1nnc(COc3ccccc3)n1Cc1c(C(=O)OC(C)C)ncn1-2 [Compound 120]
activation at 0.1 µM: 20 to 50%

Cc1ncn2c1Cc1c(C)nnn1-c1ccccc1-2 [Compound 121]
activation at 0.1 µM: 5 to 20%

COc1ccc2c(c1)-c1nnc(COc3ccccc3)n1Cc1c(C#N)ncn1-2 [Compound 122]
activation at 0.1 µM: 5 to 20%

Cc1noc(-c2ncn3c2Cc2c(C)nnn2-c2ccccc2-3)n1 [Compound 126]
activation at 0.1 µM: 20 to 50%

Cc1nc(-c2ncn3c2Cc2c(C)nnn2-c2ccccc2-3)no1 [Compound 127]
activation at 0.1 µM: 20 to 50%

COCc1nnc2n1Cc1c(-c3nc(C)no3)ncn1-c1ccc(OC)cc1-2 [Compound 128]
activation at 0.1 µM: 20 to 50%

COCc1nnc2n1Cc1c(-c3nc(C(C)C)no3)ncn1-c1ccc(OC)cc1-2 [Compound 130]
activation at 0.1 µM: 20 to 50%

Cc1nnn2c1Cc1c(-c3nc(C(C)C)no3)ncn1-c1ccccc1-2 [Compound 132]
activation at 0.1 µM: 20 to 50%

Cc1nnn2c1Cc1c(-c3noc(C(C)C)n3)ncn1-c1ccccc1-2 [Compound 133]
activation at 0.1 µM: 5 to 20%

CCOC(=O)c1ncn2c1Cn1c(COc3ccccc3)nnc1-c1cc(F)ccc1-2 [Compound 137]
activation at 0.1 µM: 20 to 50%

Cc1nc(-c2ncn3c2Cc2c(C)nnn2-c2cc(F)ccc2-3)no1 [Compound 145]
activation at 0.1 µM: > 50%

CC(C)c1nc(-c2ncn3c2Cn2c(COc4ccccc4)nnc2-c2cc(F)ccc2-3)no1 [Compound 147]
activation at 0.1 µM: 20 to 50%

Cc1nc(-c2ncn3c2Cn2c(COc4ccccc4)nnc2-c2cc(F)ccc2-3)no1 [Compound 148]
activation at 0.1 µM: 20 to 50%

Cc1nnn2c1Cc1c(-c3noc(C(C)C)n3)ncn1-c1ccc(F)cc1-2 [Compound 149]
activation at 0.1 µM: > 50%

Cc1nnn2c1Cc1c(C(=O)OC(C)C)ncn1-c1ccccc1-2 [Compound 153]
activation at 0.1 µM: 20 to 50%

CCc1nc(-c2ncn3c2Cc2c(C)nnn2-c2cc(F)ccc2-3)no1 [Compound 155]
activation at 0.1 µM: 20 to 50%

CCc1nc(-c2ncn3c2Cn2c(COc4ccccc4)nnc2-c2cc(F)ccc2-3)no1 [Compound 158]
activation at 0.1 µM: 20 to 50%

Cc1nnn2c1Cc1c(-c3noc(C(C)(C)C)n3)ncn1-c1ccc(F)cc1-2 [Compound 160]
activation at 0.1 µM: > 50%

COc1ccc2c(c1)-c1nnc(COc3ccccc3)n1Cc1c(-c3noc(C)n3)ncn1-2 [Compound 162]
activation at 0.1 µM: 20 to 50%

COc1ccc2c(c1)-c1nnc(COc3ccc(F)cc3)n1Cc1c(-c3noc(C)n3)ncn1-2 [Compound 163]
activation at 0.1 µM: 20 to 50%

COCc1nnc2n1Cc1c(-c3noc(C)n3)ncn1-c1ccc(OC)cc1-2 [Compound 164]
activation at 0.1 µM: 5 to 20%

COc1ccc2c(c1)-c1nnc(COCc3ccccc3)n1Cc1c(C#N)ncn1-2 [Compound 166]
activation at 0.1 µM: 5 to 20%

COc1ccc2c(c1)-n1nnc(COc3cccc(F)c3)c1Cc1c(-c3noc(C)n3)ncn1-2 [Compound 168]
activation at 0.1 µM: 5 to 20%

COc1ccc2c(c1)-c1nnc(COc3ccccc3)n1Cc1c(-c3noc(C(C)C)n3)ncn1-2 [Compound 171]
activation at 0.1 µM: > 50%

COc1ccc2c(c1)-c1nnc(COc3ccc(F)cc3)n1Cc1c(-c3noc(C(C)C)n3)ncn1-2 [Compound 172]
activation at 0.1 µM: > 50%

CCOCc1nnc2n1Cc1c(-c3noc(C(C)C)n3)ncn1-c1ccc(OC)cc1-2 [Compound 173]
activation at 0.1 µM: > 50%

COc1ccc2c(c1)-c1nnc(COc3cccnc3)n1Cc1c(-c3noc(C(C)C)n3)ncn1-2 [Compound 176]
activation at 0.1 µM: > 50%

COc1ccc2c(c1)-c1nnc(COc3cccc4ccccc34)n1Cc1c(-c3noc(C(C)C)n3)ncn1-2 [Compound 177]
activation at 0.1 µM: > 50%

COc1ccc2c(c1)-c1nnc(COC3CCCC3)n1Cc1c(-c3noc(C(C)C)n3)ncn1-2 [Compound 178]
activation at 0.1 µM: > 50%

COc1ccc2c(c1)-c1nnc(COc3cccc(F)c3)n1Cc1c(-c3noc(C(C)C)n3)ncn1-2 [Compound 179]
activation at 0.1 µM: > 50%

COc1ccc2c(c1)-n1nnc(COc3ccc(F)cc3)c1Cc1c(-c3noc(C)n3)ncn1-2 [Compound 180]
activation at 0.1 µM: 20 to 50%

COc1ccc2c(c1)-n1nnc(COc3ccccc3F)c1Cc1c(-c3noc(C)n3)ncn1-2 [Compound 181]
activation at 0.1 µM: 20 to 50%

COc1ccc2c(c1)-n1nnc(COc3ccccc3)c1Cc1c(-c3noc(C)n3)ncn1-2 [Compound 182]
activation at 0.1 µM: 20 to 50%

COc1ccc2c(c1)-c1nnc(COCc3cccc(F)c3)n1Cc1c(-c3noc(C(C)C)n3)ncn1-2 [Compound 183]
activation at 0.1 µM: 20 to 50%

COc1ccc2c(c1)-c1nnc(COCc3ccccc3F)n1Cc1c(-c3noc(C(C)C)n3)ncn1-2 [Compound 184]
activation at 0.1 µM: 20 to 50%

CC(C)c1nc(-c2ncn3c2Cn2c(COc4cccnc4)nnc2-c2cc(F)ccc2-3)no1 [Compound 185]
activation at 0.1 µM: > 50%

COCc1nnc2n1Cc1c(-c3noc(C(C)C)n3)ncn1-c1ccc(F)cc1-2 [Compound 186]
activation at 0.1 µM: > 50%

CCOCc1nnc2n1Cc1c(-c3noc(C(C)C)n3)ncn1-c1ccc(F)cc1-2 [Compound 187]
activation at 0.1 µM: 20 to 50%
